Reference: publication PMC5732813, “Novel piplartine-containing ruthenium complexes: synthesis, cell growth inhibition, apoptosis induction and ROS production on HCT116 cells” (Oncotarget, 2017)

What was measured:
calf thymus DNA (ctDNA) = experiment: DNA intercalation assay (ethidium bromide displacement); type: binding; conditions: ctDNA 15 μg/mL, ethidium bromide 1.5 μM; complexes 5, 10 and 20 μM; doxorubicin 10 μM; data not shown
Method: DNA intercalation was assessed by examining the ability of the complexes to displace ethidium bromide from ctDNA (Sigma-Aldrich Co., Saint Louis, MO, USA). Sexplicate assays (100 μL) were conducted in 96-well plates and contained 15 μg/mL ctDNA, 1.5 μM ethidium bromide and 5, 10 and 20 μM of each complexes in saline solution. […] Fluorescence was measured using excitation and emission wavelengths of 320 nm and 600 nm, respectively using the spectraMax Microplate Reader (Molecular Devices, Sunnyvale, CA, EUA).

HCT116 cells [1] = experiment: Cellular reactive oxygen species levels (DCF-DA); type: cell-based, human; conditions: 1 h, PL 10 μM
Method: The levels of ROS were measured according to previously described using DCF-DA (Sigma-Aldrich Co., Saint Louis, MO, USA). In brief, cells were treated with the complexes for 1 and 3 h. Then, the cells were collected, washed with saline and resuspended in FACS tubes with saline containing 5 μM DCF-DA for 30 min.

HCT116 cells [2] = conditions: HCT116, 24 and 48h; PL 10 μM
Method: (§1) To investigate the mechanisms involved in cytotoxic action of the complexes, a new set of experiments was performed. In all experiments, 2 mL of a HCT116 cell solution (7 x 10^4 cells/mL) was inserted in 24-well plates and incubated overnight to allow the cells to adhere to the plate surface. […] The negative control was treated with the vehicle (0.1% of a solution containing 70% sorbitol, 25% tween 80 and 5% water) used for diluting the compounds tested. […] Cell viability was assessed using trypan blue exclusion assay for all experiments.
For apoptosis detection, we used a FITC Annexin V Apoptosis Detection Kit I (BD Biosciences, San Jose, CA, EUA) and the analysis were performed according to the manufacturer’s instructions. Briefly, the cells treated were collected after the indicated time, washed twice with cold saline and resuspended in 300 μL binding buffer. Then, it was added 5 μL of Annexin V-FITC staining buffer and 5 μL of propidium iodide. The mixture was incubated in the dark at 37°C for 15 min. Cell fluorescence was measured by flow cytometry as described above.
In a new set of experiments, the cells were pre-treated for 1 h with 5 mM NAC, then incubated with the complexes in the established concentration for 48 h. The cells were then trypsinized and the FITC Annexin V Apoptosis Detection assay and trypan blue exclusion assay were conducted as described above.

caspase-3 = experiment: Caspase-3 activation assay (DEVD-pNA, colorimetric); conditions: HCT116, DEVD-pNA, 48h; PL 10 μM
Method: as §1
A caspase-3 colorimetric assay kit (Sigma-Aldrich Co., Saint Louis, MO, USA) was used to investigate caspase-3 activation on complexes-treated HCT116 cells based on the cleavage of DEVD-pNA and the analysis was performed according to the manufacturer’s instructions. Briefly, cells were lysed by incubation with cell lysis buffer on ice for 10 min and then centrifuged. Enzyme reactions were carried out in a 96-well flat-bottom microplate. To each reaction mixture, 5 μL cell lysate was added. Absorbance at 405 nm was measured using the SpectraMax 190 Microplate Reader (Molecular Devices, Sunnyvale, CA, EUA). The results were expressed as specific activity (IU/mg protein) of caspase-3.

HCT116 cells [3] = experiment: Measurement of the mitochondrial transmembrane potential (rhodamine 123); conditions: HCT116, rhodamine 123, 24h; PL 10 μM
Method: as §1
Mitochondrial transmembrane potential was determined by the retention of the dye rhodamine 123 [59]. Cells were incubated with rhodamine 123 (5 μg/mL, Sigma-Aldrich Co., Saint Louis, MO, USA) at 37 °C for 15 min in the dark and washed with saline. The cells were then incubated again in saline at 37 °C for 30 min in the dark and cell fluorescence was determined by flow cytometry as described above.

Compound | DNA intercalation (decrease of ethidium bromide fluorescence) (calf thymus DNA (ctDNA)) | intracellular ROS levels (HCT116 cells [1]) | early and late apoptosis (annexin-V/PI) (HCT116 cells [2]) | activation of caspase-3 (caspase-3) | mitochondrial depolarization (HCT116 cells [3])
COc1cccc2c1C(=O)c1c(O)c3c(c(O)c1C2=O)C[C@@](O)(C(=O)CO)C[C@@H]3O[C@H]1C[C@H](N)[C@H](O)[C@H](C)O1 [Doxorubicin] | significantly reduced fluorescence | – | – | – | –
COc1cc(/C=C/C(=O)N2CCC=CC2=O)cc(OC)c1OC [Piplartine] | – | induced increasing oxidative stress | induced increasing in the early and late apoptosis | activation of caspase-3 | Mitochondrial depolarization
